{"source": "patent US6703540B1", "about": "“Transformation of plants with a chloroperoxidase gene to enhance disease resistance” (The United States of America as represented by the …, priority 2000, dated 2004)", "key": {"Aspergillus flavus [1]": {"system": "Aspergillus flavus", "test": "Comparative lethalities of oxidants to Aspergillus flavus", "type": "cell-based", "conditions": "mM concentrations of oxidants that produce 50% killing of Aspergillus flavus"}, "endogenous peroxidase": {"system": "endogenous peroxidase", "test": "Endogenous peroxidase activity in leaf extracts assayed with guaiacol", "type": "biochemical, Nicotiana tabacum", "conditions": "guaiacol assay", "excerpt": "The validity of the assay procedure for CPO-P activity in transgenic tobacco was established in the following manner."}, "Aspergillus flavus [2]": {"system": "Aspergillus flavus", "conditions": "H2O2 converted to hypochlorite by myeloperoxidase, in vitro; cited from earlier work"}}}
{"molecule": "OCl", "note": "[HOCl, hypochlorous acid]", "values": [{"measurement": "LD50", "setting": "Aspergillus flavus [1]", "result": 0.30, "unit": "mM"}]}
{"molecule": "CC(=O)OO", "note": "[HOOAc, peracetic acid]", "values": [{"measurement": "LD50", "setting": "Aspergillus flavus [1]", "result": 0.15, "unit": "mM"}]}
{"molecule": "[N-]=[N+]=[N-].[Na+]", "note": "[NaN3]", "values": [{"measurement": "inhibition of endogenous peroxidase activity in leaf extracts (in words)", "setting": "endogenous peroxidase", "result": "completely inhibited"}]}
{"molecule": "OO", "note": "[Plant H2O2, hydrogen peroxide]", "values": [{"measurement": "LD50", "setting": "Aspergillus flavus [1]", "result": 18.00, "unit": "mM"}]}
{"molecule": "myeloperoxidase: animal haloperoxidase converting hydrogen peroxide to hypochlorous acid (protein, UniProt P05164 165-745, looked up) Myeloperoxidase: VTCPEQDKYRTITGMCNNRRSPTLGASNRAFVRWLPAEYEDGFSLPYGWTPGVKRNGFPVALARAVSNEIVRFPTDQLTPDQERSLMFMQWGQLLDHDLDFTPEPAARASFVTGVNCETSCVQQPPCFPLKIPPNDPRIKNQADCIPFFRSCPACPGSNITIRNQINALTSFVDASMVYGSEEPLARNLRNMSNQLGLLAVNQRFQDNGRALLPFDNLHDDPCLLTNRSARIPCFLAGDTRSSEMPELTSMHTLLLREHNRLATELKSLNPRWDGERLYQEARKIVGAMVQIITYRDYLPLVLGPTAMRKYLPTYRSYNDSVDPRIANVFTNAFRYGHTLIQPFMFRLDNRYQPMEPNPRVPLSRVFFASWRVVLEGGIDPILRGLMATPAKLNRQNQIAVDEIRERLFEQVMRIGLDLPALNMQRSRDHGLPGYNAWRRFCGLPQPETVGQLGTVLRNLKLARKLMEQYGTPNNIDIWMGGVSEPLKRKGRVGPLLACIIGTQFRKLRDGDRFWWENEGVFSMQQRQALAQISLPRIICDNTGITTVSKNNIFMSNSYPRDFVNCSTLPALNLASWREAS", "values": [{"measurement": "increase in lethality against Aspergillus flavus", "setting": "Aspergillus flavus [2]", "result": "≤ 90", "unit": "fold"}]}
